# From patent US5019573A, “Substituted dibenzofurans and methods of using same” (Euroceltique, S.A., priority 1989, dated 1991)
# Columns and labels:
# [1] = test system: LTB4-induced degranulation of purified human neutrophils; assay: LTB4-induced neutrophil degranulation (myeloperoxidase release); type: cell-based; conditions: LTB4-induced MPO release; for inhibition at 30 µM: read-out: LTB-Induced Neutrophil Degranulation % Inhibition at 30 uM; for IC50: concentration-response, read-out: LTB-Induced Neutrophil Degranulation I50
# Protocol: (§1) Each compound was tested in two in vitro models of LTB4 induced cell function. The cellular responses measured are presumed to be mediated via specific interactions of LTB4 with cellular receptors.
# (§2) The cellular responses studied include 1) LTB4 -induced degranulation (release of myeloperoxidase) from purified human neutrophils and 2) LTB4 -induced adhesion of human neutrophils to latex beads. Each putative antagonist was tested at 30 uM for its effect on each response. Selected compounds were tested in a concentration-response fashion.
# (1) Neutrophil Degranulation Assay
# Neutrophils are isolated from human venous blood via a twostep sedimentation procedure, and contaminating erythrocytes are selectively lysed. The neutrophils were preincubated in 0.25% Hanks buffer containing bovine serum albumin (BSA) with 5 ug Cytochalasin B/ml cells for 5 minutes at 37° C. Neutrophils (4×10^6) are added to stimuli (LTB4 or buffer control) in the presence and absence of antagonist in Krebs-Ringer buffer to a final volume of 1.0 ml, and incubated at 37° C. for appropriate periods of time. At the end of the reaction period the neutrophils are pelleted by centrifugation at 3000 rpm for 5 minutes at 4° C.
# Aliquots (0.2 ml) of the supernatants are added to polystyrene tubes to which are added the following: 0.6 ml )>25% Hanks BSA, 0.5 ml MPO buffer (0.2 M NaPO4, pH 6.2) and to start the color reaction 0.2 ml of a 1:1 v/v 0.05% H2 O2 :1.25 mg/ml dimethoxybenzidine (DMB). The reaction is allowed to run at room temperature for 15 minutes and is stopped by the addition of 0.05 ml 2% sodium azide. The developed color is quantitated in a spectrophotometer at 460 nm. The amount of myeloperoxidase (MPO) released by LTB4 stimulation can thus be determined. In order to determine the total amount of MPO in the cells an unstimulated control tube of neutrophils is lysed using 0.01 ml 10% Triton TX and the total MPO is determined via the color reaction and spectrophotometer reading. The activity of a given concentration of LTB4 is expressed as the percentage of the total MPO released. The activity of antagonists at a given concentration is expressed as a percentage of inhibiton of LTB4 -induced MPO release at a single concentration cf LTB4.
# [2] = test system: LTB4-induced adhesion of human neutrophils to latex beads; assay: LTB4-induced neutrophil latex bead adhesion; type: cell-based; conditions: albumin-coated latex beads, read-out: LTB-Induced Neutrophil Bead Adhesion % Inhibition at 30 uM
# Protocol: as §1, §2
# (2) Neutrophil Latex Bead Adhesion
# Latex bead suspension (0.6 ml; 10% aqueous suspension; particle diameter=1u) is pipeted into a 1.5 ml eppendorf centrifuge tube. The beads are pelleted by centrifugation, the supernatant is discarded and the beads are washed 2 times with 1 ml 0.9% saline. To the pelleted beads is added 0.5 ml saline and 0.5 ml 20 mg/ml human serum albumin (HSA) in Krebs-Ringer buffer. Allow bead-albumin mixture to sit at room temperature for 10 minutes, centrifuge for 1 minute and remove the supernatant, and wash albumin-coated beads 3 times with saline. Resuspend the beads in 1 ml of Krebs-Ringer.
# Human neutrophils are prepared as described for the neutrophil degranulation assay and 10^7 cells are added to 0.3 ml of Krebs-Ringerin the presence and absence of LTB4 and putative antagonist and are incubated at 37° for an appropriate period of time.
# The albumin-coated beads are then added in 0.05 ml to give a final bead concentration of 1% v/v, resulting in a bead to neutrophil ratio of 100:1. The tubes containing cells and beads are then placed in an agitating water bath at 37° C. and 120 oscillation per minute for 10 minutes. The reaction is stopped by adding an equal volume of 2.5% gluteraldehyde in saline. The reaction tubes are allowed to stand at room temperature for 30 minutes. The cells are then washed 3 times (with centrifugation at 1000 rpm for 5 minutes) with saline to remove the unadhered latex beads and resuspended in 0.3 ml saline.
# Wet mounts are prepared and adherence is examined by light microscopy at 400x. Adherence is scored by counting five randomly placed fields of at least 50 neutrophils per field. […] Activity of the antagonists is expressed as the percent inhibition of LTB4 induced adherence.
IC50 [1] [µM],SMILES,inhibition at 30 µM [1] [%],inhibition at 30 µM [2] [%]
9,"CN(C)C(=O)CCCC(O)c1ccc2oc3ccc(C(O)Cc4ccccc4)cc3c2c1 (centres unmarked) [Compound 41, N,N-Dimethyl-5-[2-[8-(1-hydroxy)-2-phenylethyl]dibenzofuranyl}-5-hydroxypentanamide]",57,2
,"CN(C)C(=O)CCC(O)c1ccc2oc3ccc(C(O)Cc4ccccc4)cc3c2c1 (centres unmarked) [Compound 22, N,N-Dimethyl-4-[2-[8-(1-hydroxy)-2-phenylethyl]dibenzofuran-2-yl]-4-hydroxybutanamide]",100,1
19,"O=C(CCCC(O)c1ccc2oc3ccc(C(O)Cc4ccccc4)cc3c2c1)N1CCCC1 (centres unmarked) [Compound 42, N-[5-[2-[8-(1-Hydroxy)-2-phenylethyl]dibenzofuranyl]-5 hydroxypentanoyl]pyrrolidine]",100,12
,"O=C(O)CC(O)c1ccc2oc3ccc(C(O)Cc4ccccc4)cc3c2c1 (centres unmarked) [Compound 11, 3-[2-[8-(1-Hydroxy)-2-phenylethyl]dibenzofuranyl]-3-hydroxypropionic Acid]",35,7
13,"CN(C)C(=O)CC(O)c1ccc2oc3ccc(C(O)Cc4ccccc4)cc3c2c1 (centres unmarked) [Compound 12, N,N-Dimethyl-3-[2-[8-(1-hydroxy)-2-phenylethyl]dibenzofuranyl]-3-hydroxypropanamide]",100,14
,"O=C(CCC(O)c1ccc2oc3ccc(C(O)Cc4ccccc4)cc3c2c1)N1CCCC1 (centres unmarked) [Compound 23, N-[4-[2-[8-(1-Hydroxy)-2-phenylethyl]dibenzofuranyl]-4-hydroxybutanoyl]pyrrolidine]",62,10
,"O=C(O)CCCC(O)c1ccc2oc3ccc(C(O)Cc4ccccc4)cc3c2c1 (centres unmarked) [Compound 40, Sodium 5-[2-[8-(1-Hydroxy)-2-phenylethyl]dibenzofuranyl]-5-hydroxypentanoate]",38,5
